Test results published in patent US20250177340A1, “Tartaric Acid Analogs and Uses Thereof” (Lapix Therapeutics, Inc., priority 2021, published 2025).

Legend:
[1] = system: PD-1 and TIM3; assay: PD-1 and TIM3 expression on PS-treated human CD8+ T-cells (flow cytometry); format: cell-based
Text: (§1) 30:70 PS:DMPC liposomes were synthesized in PBS.

[2] = system: TNF-α; assay: TNF-α ELISA in RAW 264.7 cells; format: cell-based, mouse; settings: 0.0001-100 mM, human FVIII antigen
Experimental: (§2) RAW 264.7 cells were prepared, cultured, and dosed as described herein. The RAW 264.7 cell line is an immortalized mouse monocyte macrophage that is very close to primary cells, easy to maintain with minimum manipulation, and known to express TIM4. […] OPLS and TTA were dosed at 100, 70, 50, 30, 10, 3, 1, 0.3, 0.1, 0.03, 0.01, 0.003, 0.001, 0.0003 and 0.0001 mM. Finally, 100 μl of 40 μg/ml of human FVIII as a sample antigen was added to each well. LPS and free protein were used as positive and baseline controls, respectively. OPLS and TTA were formulated in RPMI media in aseptic conditions. The pH was adjusted to approximately 7.5 before dosing cells. TNF-α and TGF-β ELISAs were conducted as per the manufacturer's instructions (TNF-α ELISA kit: R&D systems DY410; TGF-β ELISA kit: R&D systems DY1679).

[3] = system: human CD8+ T cells; assay: Proliferation of PS-treated human CD8+ T-cells (CFSE); format: cell-based; settings: 70 mM L-(+)-tartaric acid with 0.1 mM PS
Text: as §1

[4] = system: murine CD8+ T cells; assay: Murine CD8+ T-cell proliferation (CFSE), Example 6; format: cell-based, C57BL/6 mice
Experimental: Preparation of test materials: TTA, compound A and compound B were formulated in RPMI media under aseptic conditions. The pH was adjusted to approximately 7.5 before dosing cells.
Tissue culture and dosing: Splenocytes of C57BL/6 mice were stained with CFSE and prepared, cultured, and dosed. Cells were seeded at 1×10^5 cells/well in a 96-well round-bottomed plate.
Controls: Two controls were used. A negative control dosed with 10 ng/ml IL2 was used, and a positive control dosed with 20 μg/ml ConA and 10 ng/ml IL2 was used.
Treatment: After ConA stimulation (10 μg/ml), cells were dosed with 30 mM compound A, B or C with or without 0.1 mM 30:70 PS:DMPC liposomes. All wells were dosed with 10 ng/ml of IL-2.

[5] = system: TGF-β; assay: TGF-β ELISA in RAW 264.7 cells; format: cell-based, mouse; settings: 0.0001-100 mM, human FVIII antigen
Experimental: as §2

[6] = system: human CD8+ T cells; assay: Survival of PS-treated human CD8+ T-cells (viability dye, microscopy)
Experimental: (§11) CD8+ T-cells were stained with CFSE (ThermoFisher Catalog No. 50-169-50), and prepared, cultured, and dosed as described herein. Briefly, cells were seeded at 4×10^5 cells/well. IL-2 (10 ng/ml) was used as a negative control, and ConA (20 μg/ml) in conjunction with IL-2 (10 ng/ml) was used as a positive control. After ConA stimulation (10 μg/ml) in the presence of 10 ng/ml IL-2, cells were dosed in duplicate with PS:DMPC liposomes to give a total of 100, 10, 1, or 0.1 mM of PS. […] Flow cytometer analysis was performed to assess cell survival by viability dye and proliferation by CFSE (gated on survived CD8+ T-cells).
(§12) Cells were observed via a microscope at the end of the incubation period.

[7] = system: human CD8+ T cells
Experimental: as §11, §12

[8] = system: murine CD8+ T-cells; assay: Murine CD8+ T-cell proliferation concentration-response (CFSE), Example 7; format: cell-based, C57BL/6 mice
Text: (§3) In this study, the effects of increasing doses of compound B and compound C on proliferation (CFSE staining), activation (Granzyme B and IFN-γ), and checkpoint modulation (PD1 and TIM3) of murine CD8+ T-cells in the presence and absence of phosphatidylserine (PS) were explored.
(§4) Preparation of test materials: 30:70 PS:DMPC liposomes were synthesized in PBS. […] Compound C was first dissolved in a small volume of DMSO before diluting to the final desired concentration.
(§5) Tissue culture and dosing: Splenocytes of C57BL/6 mice were stained with CFSE and prepared, cultured, and dosed. Cells were seeded at 4×10^5 cells/well.
(§6) Controls: Two controls were used. A negative control dosed with 10 ng/ml IL-2 was used, and a positive control dosed with 20 μg/ml ConA and 10 ng/ml IL-2 was used.
(§7) Treatment: After ConA stimulation (10 μg/ml), cells were dosed with log 3 dilution of compound B or compound C to cover a range from 1×10^−3 to 30 mM in duplicates with or without 0.1 mM PS:DMPC liposomes. All wells were dosed with 10 ng/ml of IL-2.
(§8) Flow cytometer: Flow cytometer analysis was performed to assess cell proliferation by CFSE, activation by double staining for Granzyme B (GzmB) and IFN-γ, checkpoint modulation by double staining for PD-1 and TIM3.
(§9) Exposure-response analysis: Change from baseline was calculated for each marker as follows:
(§10) Concentration versus change was fitted to an appropriate three-, four- or five-parameter log-logistic model using “dre” package in “R.”
The fold change from baseline of CD8+ T-cells proliferation as a function of increasing doses of compound B was calculated using equation 1, where ResponseControl was the proliferation of cells treated with IL-2 alone and Responsetreatment was the proliferation at each dose of compound B. The baseline PS response was calculated using the same equation where Responsetreatment was the proliferation of cells treated with 0.1 mM PS.

[9] = system: Granzyme B and IFN-γ; assay: GzmB+/IFN-γ+ double-positive murine CD8+ T-cells, Example 7; format: cell-based, C57BL/6 mice; settings: controls: high dose ConA; 0.1 mM PS liposomes
Text: as §3, §4, §5, §6, §7, §8, §9, §10
The fold change from baseline GzmB+/IFN-γ+ double-positive CD8+ T-cells as a function of increasing doses of compound B was calculated using equation 1, where Responsecontrol was GzmB+/IFN-γ+ double-positive CD8+ T-cells in cells treated with IL-2 alone and Responsetreatment was GzmB+/IFN-γ+ double-positive CD8+ T-cells at each dose of compound B. The baseline PS response was calculated using the same equation with Responsetreatment as the GzmB+/IFN-γ+ double-positive CD8+ T-cells treated with 0.1 mM PS.

[10] = system: TIM3 and PD-1; assay: TIM3+/PD-1+ double-positive murine CD8+ T-cells, Example 7; format: cell-based, C57BL/6 mice; settings: controls: high dose ConA; 0.1 mM PS liposomes
Text: as §3, §4, §5, §6, §7, §8, §9, §10
The fold change from baseline of TIM3+/PD-1+ double-positive CD8+ T-cells as a function of increasing doses of compound B was calculated using equation 1, where Responsecontrol was TIM3+/PD-1+ double-positive CD8+ T-cells in cells treated with IL-2 alone and Responsetreatment was TIM3+/PD-1+ double-positive CD8+ T-cells at each dose of compound B. The baseline PS response was calculated using the same equation with Responsetreatment as the TIM3+/PD-1+ double-positive CD8+ T-cells treated with 0.1 mM PS.

[11] = 70 mM L-(+)-tartaric acid with 0.1 mM PS

O=C(O)[C@H](O)[C@@H](O)C(=O)O [L-(+)-tartaric acid]
PD-1 expression [1, 11]: 23%
TIM3 expression [1, 11]: 0.527%
decrease of TIM3 expression compared to PS only group [1, 11]: about 66%
frequency of cells co-expressing PD-1 and TIM3 [1, 11]: 0.198%
reduction of PD-1 expression compared to PS only-treated group [1, 11]: about 35%
reduction of cells co-expressing PD-1 and TIM3 compared to PS only [1, 11]: 91.4%
TNF-α production [2]: stimulate TNF-α production
effect on PS-suppressed CD8+ T-cell proliferation/accumulation (CFSE) [3]: partially reversed the effect of PS
percent of CD8+ T-cell proliferation ([4]; 30 mM, in absence of PS, ConA 10 μg/ml): 41.74%
TGF-β production [5]: without stimulating TGF-β production
increase in viable CD8+ T cells compared to PS-treated cells alone [6, 11]: 65%

phosphatidylserine [PS, reference compound]
PD-1 expression ([1]; 0.1 mM PS only): 35%
TIM3 expression ([1]; 0.1 mM PS only): 1.53%
frequency of cells co-expressing PD-1 and TIM3 ([1]; 0.1 mM PS only): 2.31%
microscopic observation of cells [7]: did not look healthy
fold increase in CD8+ T-cell proliferation compared to control cells ([8]; 0.1 mM PS): 28 fold
percent proliferation of CD8+ T-cells ([8]; controls: high dose ConA 20 μg/ml, 0.1 mM PS liposomes): 4.24%
GzmB+/IFN-γ+ double-positive CD8+ T-cells relative to negative control [9]: one half
percent of CD8+ T-cell proliferation ([4]; controls: ConA 20 μg/ml + IL2, 0.1 mM PS): 4.84%
fold increase in TIM3+/PD-1+ double-positive CD8+ T-cells vs negative control [10]: 1.27 fold
CD8+ T-cell survival ([6]; controls: ConA 20 μg/ml + IL-2, 0.1 mM PS after ConA stimulation): 25.9%
